Measured values as given in patent publication US4923865A, “Substituted 1-(1H-imidazol-4-yl)alkyl-benzamides as anti-ischemics and as alpha-2-adrenergic receptor agonists” (U C B Societe Anonyme, priority 1988, dated 1990).
Where two headings read alike, the source gives them in different places.

What was measured:
myocardial ischemia = experiment: Artificially induced acute coronary insufficiency in an awake dog (ST-segment elevation); assay type: in vivo; conditions: Canis lupus familiaris, 0.1 h, intravenous, 6 min coronary occlusion, groups of ten animals, read-out: DE20 (dose producing a mean reduction of at least 20% of the ST-segment elevation)
Excerpt: Because of the reduction in the oxygen supply which results from this, the occlusion produces myocardial ischemia which is expressed on the electrocardiogram by a reproducible and quantifiable ST-segment elevation. The anti-ischemic action of a compound results in a reduction of the magnitude of the ST-segment elevation. (P. R. MAROKO and E. BRAUNWALD, Circulation, 53, (1976, Suppl. I), 162-168; S. E. EPSTEIN et al., Circulation, 53, (1976, Suppl. I), 191-197).

male NMRI mice = experiment: Toxicity, Irwin's test (lethal dose); assay type: in vivo; conditions: intraperitoneal
Experimental: 5. Toxicity. The toxicity of the compounds according to the present invention has been determined in male NMRI mice by means of Irwin's test (S. IRWIN, Psychopharmacologia, 13, (1968), 222-257).
Progressive doses of the test compound are administered intraperitoneally to groups of three mice until the lethal dose is reached (dose causing the death of two out of three animals within 48 hours). In Table IX below, the lethal dose in mg/kg found for the compounds of the invention is given. It can be seen from this Table that the compounds of the invention are not very toxic.

[1] = biological target: T1, presynaptic α2 -adrenergic receptors (Cavia porcellus, UniProt Q60474); experiment: Inhibition of the contraction of electrically stimulated guinea-pig ileum
T1 construct: Stimulation of a guinea-pig ileum; from tissue; host or cells: guinea-pig ileum longitudinal muscle strips
T1 sequence (Q60474 1-464): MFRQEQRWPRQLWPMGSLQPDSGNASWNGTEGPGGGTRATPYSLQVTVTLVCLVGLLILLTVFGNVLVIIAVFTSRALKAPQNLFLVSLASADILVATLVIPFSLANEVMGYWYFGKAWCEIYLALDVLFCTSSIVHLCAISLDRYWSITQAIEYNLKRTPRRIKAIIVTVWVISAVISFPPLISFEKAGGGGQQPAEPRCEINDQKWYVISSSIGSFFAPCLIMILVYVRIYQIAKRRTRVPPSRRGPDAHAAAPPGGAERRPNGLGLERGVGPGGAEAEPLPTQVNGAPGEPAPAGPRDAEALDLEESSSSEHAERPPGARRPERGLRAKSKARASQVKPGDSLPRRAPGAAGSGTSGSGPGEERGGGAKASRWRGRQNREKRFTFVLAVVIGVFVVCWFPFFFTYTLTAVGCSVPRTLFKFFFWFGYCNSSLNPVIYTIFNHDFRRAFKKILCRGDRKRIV
Excerpt: (c) Stimulation of a guinea-pig ileum. Longitudinal muscles strips attached to an isometric strain gauge are suspended in Tyrode's solution and are stretched under a tension of 1 g (G. M. DREW. Brit. J. Pharmacol. 64, (1978), 293-300; M. ANDREJAK et al., Naunyn-Schmiedelberg's Arch. Pharmacol. 314, (1980), 83-87).
Electrical stimulation of the parasympathetic nerves associated with the ileum fragments causes a contraction of the muscle. This contraction is reduced in the presence of a presynaptic α2 -agonist and the magnitude by which the contraction is reduced depends on the concentration of the agonist used. This effect is antagonized by the simultaneous presence of an α2 -antagonist such as α-yohimbine. The compounds to be studied have been tested at increasing concentrations ranging from 10^-10 to 10^-3 mole/l.
The concentration (IC50 in mole/l) that reduces by 50% the intensity of the contraction of the muscle is determined.
In the presence of α-yohimbine at a concentration of 10^-6 mole/l, the concentration of the compounds A or B, for example, that is required for reducing muscle contraction intensity by 50% is higher, and becomes greater than 10^-6 mole/l, which gives additional confirmation that the compounds of the invention act really at the level of the presynaptic α2 -adrenergic receptors.

[2] = biological target: T1, presynaptic α2 -adrenergic receptors; experiment: Stimulation of the isolated guinea-pig atria (reduction in tachycardia); conditions: isolated guinea-pig atria, electrical stimulation; read-out: IC30 (30% reduction in the maximum tachycardia)
Excerpt: (b) Stimulation of the isolated guinea-pig atria. The release of noradrenalin at the level of the nerve endings is mediated by a feedback regulating mechanism through the presynaptic α2 -adrenergic receptors. […] Ed. D. S. DAVIES, J. L. REID, Pitman, London.
The electrical stimulation of the isolated guinea-pig atria induces a release of noradrenalin which results in an increase in the rate of the heart beat (tachycardia). This tachycardia is inhibited by an α2 -agonist such as, for example, clonidine, in a proportion which depends on the dose of the agonist used. The action of the α2 -agonist may be limited in the presence of an α2 -specific antagonist such as α-yohimbine.
The in vitro activity of the compounds of the invention on the presynaptic α2 -adrenergic receptors has been studied on the isolated guinea-pig atria, electrically stimulated according to the method described by I. C. MEDGETT et al., Naunyn-Schmiedeberg's Arch. Pharmacol. 304, (1978), 215-221. The compound to be studied is tested in increasing concentrations ranging from 10^-10 to 10^-3 mole/l. The concentration (IC30 in mole/l) which causes a 30% reduction in the maximum tachycardia obtained initially during the electrical stimulation of the atria in the absence of the compound to be tested, is determined.
On the other hand, in the presence of a concentration of 10^-6 mole/l of α-yohimbine, the concentration of compound A necessary to obtain a reduction of 30% in the tachycardia is greater than 10^-7 mole/l.

[3] = test system: stenosis at the level of a coronary artery; experiment: Effort trial on a moving belt in dogs with coronary artery stenosis; assay type: in vivo, dog; conditions: maximum effort at 12 Km/h for 1 minute
Experimental: (b) Effort trial on a moving belt. In this test, a group of at least four dogs is used (equipped with intracardiac electrodes), the dogs having an organic stenosis at the level of a coronary artery. This stenosis causes imbalance between the demand and supply of oxygen when the animal is required to make an effort. This imbalance is expressed on the electrocardiogram by an increase in the ST-segment.
In the trial, the dog runs at a speed of 12 km/h on a moving belt having a slope of 15°. This maximum effort is required for one minute. During the trial, the increase in the ST-segment is recorded, together with the natural increase in the pulse rate. The experiment is repeated at least four times, and the mean of the values obtained is taken as reference (100%) for the group of animals. The animals are then allowed to rest for a minimum of 24 hours before being subjected to a new effort trial under the influence of the compound to be studied.
The compound to be studied is administered slowly (over 1 minute) by intravenous injection 5 minutes before the new effort trial. In the course of the latter, the variations in the same parameters are recorded.

[4] = guinea-pig ileum, electrical stimulation, read-out: IC50 (reduces by 50% the intensity of the contraction of the muscle)

SMILES	ED20 (myocardial ischemia) [µmol/kg]	lethal dose (death of two out of three animals within 48 hours) (male NMRI mice) [mg/kg]	IC50 [1, 4] [nM]	other results
Cl.O=C(NCCO)c1cccc(Cc2c[nH]cn2)c1O [E, 2-hydroxy-N-(2-hydroxyethyl)-3-[(1H-imidazol-4-yl)methyl]-benzamide hydrochloride]	< 3	893	60000	
Cc1c(Cc2c[nH]cn2)ccc(O)c1C(N)=O.Cl [O, 6-hydroxy-3-[(1H-imidazol-4-yl)methyl]-2-methylbenzamide hydrochloride]		> 268		
NC(=O)c1cc(Cc2c[nH]cn2)ccc1O [G, 2-hydroxy-5-[(1H-imidazol-4-yl)methyl]-benzamide]	< 1	651		
CC(C)(C)c1cc(Cc2c[nH]cn2)c(O)c(C(N)=O)c1 [J, 5-tert-butyl-2-hydroxy-3-[(1H-imidazol-4-yl)methyl]-benzamide]			30000	
Cl.O=C(NO)c1cccc(Cc2c[nH]cn2)c1O [M, N,2-dihydroxy-3-[(1H-imidazol-4-yl)methyl]-benzamide hydrochloride]		> 288	400	
Clc1cccc(Cl)c1N=C1NCCN1 [clonidine, reference compound]			20	IC30 [2]: 3.2 nM
CC(C)NCC(O)COc1cccc2ccccc12 (stereo not drawn) [propranolol, 1-(isopropylamino)-3-(1-naphthyloxy)-2-propanol, reference compound]	2			reduction in ST-segment ([3]; dose 1.0 μmole/kg i.v.): 74%; reduction in the pulse rate ([3]; dose 1.0 μmole/kg i.v.): 35 beats/min.
NNC(=O)c1cccc(Cc2c[nH]cn2)c1O [Compound D, 2-hydroxy-3-[(1H-imidazol-4-yl)methyl]-benzohydrazide]	3	232		IC30 [2]: 220 nM
CN(C)C(=O)c1cccc(Cc2c[nH]cn2)c1O [H, 2-hydroxy-3-[(1H-imidazol-4-yl)methyl]-N,N-dimethylbenzamide]		245		
CNC(=O)c1cccc(Cc2c[nH]cn2)c1O.Cl [C, 2-hydroxy-3-[(1H-imidazol-4-yl)methyl]-N-methylbenzamide hydrochloride]	0.3	267		IC30 [2]: 130 nM; reduction in ST-segment ([3]; dose 0.32 μmole/kg i.v.): 50%; reduction in the pulse rate ([3]; dose 0.32 μmole/kg i.v.): 1 beats/min.
CC(c1c[nH]cn1)c1cccc(C(N)=O)c1O.Cl (single isomer, unassigned; (+)) [P, (+)-2-hydroxy-3-[1-(1H-imidazol-4-yl)ethyl]-benzamide hydrochloride]		294	2	
CC(c1c[nH]cn1)c1ccc(O)c(C(N)=O)c1O.Cl (stereo not drawn) [N, 2,6-dihydroxy-3-[1-(1H-imidazol-4-yl)ethyl]-benzamide hydrochloride]		284		
Cc1ccc(C(N)=O)c(O)c1Cc1c[nH]cn1 [L, 2-hydroxy-3-[(1H-imidazol-4-yl)methyl]-4-methylbenzamide]		231	30	
Cc1ccc(Cc2c[nH]cn2)c(O)c1C(N)=O.Cl [K, 2-hydroxy-3-[(1H-imidazol-4-yl)methyl]-6-methylbenzamide hydrochloride]	0.32	> 268		
CC(c1c[nH]cn1)c1cccc(C(N)=O)c1O.Cl (stereo not drawn) [B, 2-hydroxy-3-[1-(1H-imidazol-4-yl)ethyl]-benzamide hydrochloride]	0.02	267	3	IC30 [2]: 0.75 nM; IC50 ([1]; in the presence of 10^-6 mole/l of α-yohimbine, read-out: concentration required for reducing muscle contraction intensity by 50%): > 1000 nM
COc1c(Cc2c[nH]cn2)cccc1C(N)=O.Cl [F, 3-[(1H-imidazol-4-yl)methyl]-2-methoxybenzamide hydrochloride]	< 3	802	70000	IC30 [2]: 70 nM
Cl.NC(=O)c1c(O)ccc(Cc2c[nH]cn2)c1O [I, 2,6-dihydroxy-3-[(1H-imidazol-4-yl)methyl]-benzamide hydrochloride]	0.32	> 270	300	
